Reference: patent publication US7763604B2, “Methods for administration of a farnesyl dibenzodiazepinone” (Thallion Pharma Ceuticals, Inc., priority 2005, dated 2010)

How the values were obtained:
[1] = pharmacokinetics and tissue levels after 30 mg/kg bolus IV, IP, SC and PO in mice; format: in vivo, female Crl: CD1 mice
Experimental: The compound of formula I was dissolved in ethanol (5%), Polysorbate 80 (15%), PEG 400 (5%) and dextrose (5%) at a final concentration of 6 mg/ml (IV, IP and SC administration). For oral administration, the compound of Formula I was solubilized in Chremophor® EL/Ethanol (50%:50%) at a final concentration of 6 mg/ml. Prior to dosing, animals (female Crl: CD1 mice; 6 weeks of age, 22-24 g) were weighed, randomly selected and assigned to the different treatment groups. The compound of Formula I was administered by the bolus intravenous (IV), bolus subcutaneous (SC), bolus intraperitoneal (IP), or oral (PO) route to the assigned animals. The dosing volume of Formula I was 5 mL per kg body weight. Animals were anesthetized prior to bleeding with 5% isoflurane. Blood was collected into microtainer tubes containing the anticoagulant K2EDTA by cardiac puncture from each of 4 animals per bleeding timepoint (2 min, 5 min, 15 min, 30 min, 1 h, 2 h, 4 h and 8 h). Following collection, the samples were centrifuged and the plasma obtained from each sample was recovered and stored frozen (at approximately −80° C.) pending analysis. At the 5 min and 30 min time points, the following organs were harvested from each animal: brain, lungs, skeletal muscle, fat tissue, kidneys, spleen, thymus and liver. Tissues were frozen (at approximately −80° C.) pending analysis. Samples were analysed by LC/MS/MS.
Plasma values of the compound of Formula I falling below the limit of quantitation (LOQ) were set to zero. […] The following pharmacokinetic parameters were calculated: area under the plasma concentration versus time curve from time zero to the last measurable concentration time point (AUCO-t), area under the plasma concentration versus time curve extrapolated to infinity (AUCinf), maximum observed plasma concentration (Cmax), time of maximum plasma concentration (tmax), apparent first-order terminal elimination rate constant (kel), apparent first-order terminal elimination half-life will be calculated as 0.693/kel (t1/2). The systemic clearance (CL) of the compound of Formula I after intravenous administration was calculated using Dose/AUCinf. Pharmacokinetic parameters were calculated using Kinetica™ 4.1.1 (InnaPhase Corporation, Philadelphia, Pa.).

[2] = pharmacokinetics of 14-day CIV infusion in rats; format: in vivo, Sprague-Dawley rats; conditions: calculated at the end of treatment
Experimental: Sprague-Dawley rats received an intravenous continuous infusion over 14 days of Formula I at 25 mg/kg/day, 50 mg/kg/day, or 75 mg/kg/day at a rate of 2 mL/kg/h for 14 consecutive days (same formulation as in Example 7). Blood was collected from the jugular vein in tubes containing K2 EDTA from 3 rats/sex/group at the following time points: 2, 6, and 12 hours after the start of dosing on Day 1, on Day 2 at 6 hours (approximately 30 hours after the start of dosing), on Days 6 and 10 at 6 hours, and on Day 15, 1 hour prior the end of dosing, and then at 5 min, 15 min, 30 min, 1 h, and 2 h after the end of dosing.

[3] = population pharmacokinetic analysis, mouse (IV); format: in vivo; conditions: population PK
Experimental: (§1) An analysis was performed to derive allometric equations for Formula I pharmacokinetic parameters using Formula I plasma concentration-time data from three species, including mouse, rat, and monkey, and to estimate human pharmacokinetic parameters from those allometric equations.
(§2) Plasma concentrations of Formula I were obtained from mice, rats, and monkeys following intravenous injection or continuous infusion. Formula I pharmacokinetic parameters in mice, rats, and monkeys were estimated using population pharmacokinetic analysis, a function of the software program NONMEM™ (version 5). Typical population pharmacokinetic parameters for Formula I in humans were extrapolated from allometric equations that were derived from pharmacokinetic parameters estimated in the three animal species.
(§3) A two-compartment model with a first-order elimination from the central compartment adequately described Formula I plasma concentration-time profiles following intravenous bolus injection (30 mg/kg) in mice and rats, 7-day continuous infusion in rats (50 to 170 mg/kg/day), and 14-day continuous infusion in monkeys (5 to 30 mg/kg/day).

[4] = population pharmacokinetic analysis, rat (IV + CIV); format: in vivo; conditions: population PK
Experimental: as §1, §2, §3

**Q.** With `CC(C)=CCC/C(C)=C/CC/C(C)=C/CN1C(=O)c2cccc(O)c2Nc2c(O)cc(O)cc21` [Formula I, 10-farnesyl-4,6,8-trihydroxy-dibenzodiazepin-11-one] as the molecule, how does the peak plasma concentration ([1]; IP bolus 30 mg/kg) read?
**A.** Its peak plasma concentration is 7.8 µM.

**Q.** What about the “time to peak plasma concentration” value ([1]; IP bolus 30 mg/kg) of the same molecule?
**A.** The value was 15 min.

**Q.** And the tissue distribution ([1]; IV and IP bolus 30 mg/kg, 30 min time point)?
**A.** Its tissue distribution is “well distributed”.

**Q.** And the “drug levels after oral administration” value ([1]; PO 30 mg/kg)?
**A.** Its value is “moderate but sustained drug levels”.

**Q.** What about the peak plasma concentration ([1]; SC bolus 30 mg/kg) of the same molecule?
**A.** The peak plasma concentration was 2.3 µM.

**Q.** What about the “time to peak plasma concentration” value ([1]; SC bolus 30 mg/kg) of the same molecule?
**A.** Its value is 60 min.

**Q.** What about the “tissue levels compared with IP” value ([1]; SC bolus 30 mg/kg, 30 min time point) of the same molecule?
**A.** Its value is “significantly lower”.

**Q.** What about the “t1/2,α” value ([1]; bolus IV 30 mg/kg, plasma, mice, 30 mg/kg) of the same molecule?
**A.** The value was 4.7 min.

**Q.** And the “plasma concentration, initial” value ([1]; bolus IV 30 mg/kg, start of decline)?
**A.** The value was ~425 µM.

**Q.** What about the “time plasma concentration is maintained at therapeutically relevant levels” value ([1]; intraperitoneal and subcutaneous bolus 30 mg/kg, mice) of the same molecule?
**A.** The value was “over 8 hours”.

**Q.** What about the T1/2z ([2]; CIV 25 mg/kg/day) of the same molecule?
**A.** Its T1/2z is 1.6 h.

**Q.** And the T1/2z ([2]; CIV 50 mg/kg/day)?
**A.** Its T1/2z is 1.2 h.

**Q.** What about the T1/2z ([2]; CIV 75 mg/kg/day) of the same molecule?
**A.** Its T1/2z is 1.2 h.

**Q.** And the Ke [3]?
**A.** The Ke was 8.466 h⁻¹.

**Q.** What about the Ke [4] of the same molecule?
**A.** Its Ke is 8.651 h⁻¹.
